Source: patent US20260125371A1, “METHOD FOR INHIBITING CLOSTRIDIOIDES DIFFICILE SPORE GERMINATION” (UNIVERSITY OF NOTRE DAME DU LAC, priority 2022, published 2026)
Converted amounts (≈) assume the structure as drawn. Where two headings read alike, the source gives them in different places.

Experiments:
C. difficile ATCC 43255 = assay: Determination of minimal-inhibitory concentrations (microdilution), C. difficile ATCC 43255; assay type: cell-based, Clostridioides difficile; settings: for MIC: Clostridioides difficile
S. aureus = assay: MIC against S. aureus strains; assay type: cell-based; settings: S. aureus ATCC 29213, 24 h; for MIC: Staphylococcus aureus, ATCC29213, 24 h, read-out: MIC (μg/mL) 24 h
[1] = ATCC43255, 24 h, C. difficile ATCC 43255, 24 h, read-out: MIC (μg/mL) 24 h
[2] = ATCC43255, 48 h, C. difficile ATCC 43255, 48-h incubation, read-out: MIC (μg/mL) 48 h
[3] = C. difficile ATCC 43255, 48-h incubation

Row | Structure (SMILES) | MIC (C. difficile ATCC 43255; [1]) | MIC (C. difficile ATCC 43255; [2]) | MIC (S. aureus) | MIC (μg/mL) 48 h (C. difficile ATCC 43255; [3]) | MIC (μg/mL) 24 h (C. difficile ATCC 43255; C. difficile ATCC 43255, 24 h) | MIC (μg/mL) 24 h (S. aureus)
1 | c1cc2cc(-c3nc(-c4ccc5occc5c4)no3)ccc2[nH]1 [Compound 120, 3-(Benzofuran-5-yl)-5-(1H-indol-5-yl)-1,2,4-oxadiazole] | > 128 µg/mL | > 128 µg/mL | 64 µg/mL (≈ 212 µM) |  |  | 
2 | COc1ccc2oc3ccc(-c4noc(-c5n[nH]cc5[N+](=O)[O-])n4)cc3c2c1 [Compound 119, 3-(8-Methoxydibenzo[b,d]furan-2-yl)-5-(4-nitro-1H-pyrazol-3-yl)-1,2,4-oxadiazole] | 2 µg/mL (≈ 5.3 µM) | 64 µg/mL (≈ 170 µM) | 32 µg/mL (≈ 84.8 µM) |  |  | 
3 | Nc1ccc(-c2nc(-c3ccc(OC4CCCC4)cc3)no2)cc1 [Compound 51, 4-(3-(4-(Cyclopentyloxy)phenyl)-1,2,4-oxadiazol-5-yl) aniline] | 2 µg/mL (≈ 6.22 µM) |  | 4 µg/mL (≈ 12.4 µM) | >128 µg/mL |  | 
4 | CCCCOc1ccc(-c2noc(-c3ccc(O)cc3)n2)cc1 [Compound 90, 4-(3-(4-Butoxyphenyl)-1,2,4-oxadiazol-5-yl)phenol] | > 128 µg/mL | > 128 µg/mL | > 128 µg/mL |  |  | 
5 | Oc1ccc(-n2cc(-c3ccc(Oc4ccccc4)cc3)nn2)cc1 [Compound 136, 4-(4-(4-Phenoxyphenyl)-1H-1,2,3-triazol-1-yl)phenol] | > 128 µg/mL |  | > 128 µg/mL | >128 µg/mL |  | 
6 | CCC(C)Nc1c[nH]nc1-c1nc(-c2ccc(Oc3ccc(C(F)(F)F)cc3)cc2)no1 (stereo not drawn) [Compound 41] |  |  |  | >128 µg/mL | >128 µg/mL | >128 µg/mL
7 | O=C(O)c1ccc(-c2nc(-c3ccc(OC4CCCC4)cc3)no2)cc1 [Compound 49, 4-(3-(4-(Cyclopentyloxy)phenyl)-1,2,4-oxadiazol-5-yl)benzoic acid] | > 128 µg/mL |  | > 128 µg/mL | >128 µg/mL |  | 
8 | Oc1ccc(-c2nc(-c3ccc(OC4CC4)cc3)no2)cc1 [Compound 92, 4-(3-(4-Cyclopropoxyphenyl)-1,2,4-oxadiazol-5-yl)phenol] | > 128 µg/mL | > 128 µg/mL | > 128 µg/mL |  |  | 
